Tests used:
human SPPL2a [1] = biological target: T1, human SPPL2a (Homo sapiens, UniProt Q8TCT8); assay: Sppl2a TL (translocation) imaging assay in U-2 OS cells; format: cell-based; set-up: expressed in transfected cells; details: U-2 OS cells expressing human SPPL2a and EGFP-TNFα(aa1-76) NTF substrate; 24 h
T1 sequence (Q8TCT8 26-520): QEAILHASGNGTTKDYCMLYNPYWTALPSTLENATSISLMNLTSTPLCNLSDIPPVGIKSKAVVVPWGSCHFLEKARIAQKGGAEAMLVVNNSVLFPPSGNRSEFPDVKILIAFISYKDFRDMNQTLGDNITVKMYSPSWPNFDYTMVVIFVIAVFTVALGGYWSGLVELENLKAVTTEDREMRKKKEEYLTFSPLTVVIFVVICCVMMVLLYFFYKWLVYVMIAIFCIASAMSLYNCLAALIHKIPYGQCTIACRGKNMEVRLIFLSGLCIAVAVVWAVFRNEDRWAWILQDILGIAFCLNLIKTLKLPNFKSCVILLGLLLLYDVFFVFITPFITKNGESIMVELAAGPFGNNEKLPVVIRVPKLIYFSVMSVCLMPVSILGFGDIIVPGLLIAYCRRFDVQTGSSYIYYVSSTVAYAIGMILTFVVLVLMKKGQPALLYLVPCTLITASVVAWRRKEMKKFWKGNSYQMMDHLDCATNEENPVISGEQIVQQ
Experimental: SPPL2a, TL in U-2 OS Cells. Stable U-2 OS cell lines expressing human SPPL2a constitutively and a EGFP-labeled TNFα(aa1-76) NTF substrate under a doxycycline-regulated promoter were used for the imaging assays. Cells were seeded at 3000 cells/30 μL/384-well in DMEM/GlutaMax™-I (Invitrogen) supplemented with tetracycline-free 10% FBS (Amimed) and incubated at 37° C., 5% CO2 for 3-4 h. Subsequently, 3.3 μL of inhibitors, prediluted in doxycycline-containing medium for 11-point concentration-response curves, were added to each well using a CyBi well liquid handling device (Cybio AG, Jena, Germany) to result in final inhibitor concentrations ranging from 100 μM to 1 nM (final DMSO concentration 0.9% (v/v)) and 5 μg/mL doxycycline). The cells were incubated with inhibitor at 37° C., 5% CO2 for 24 h. Thereafter cell were fixed in 4% PFA/PBS and in parallel, nuclei were stained with Hoechst (Invitrogen) 1:5000 in PBS for 30 min. The plates were imaged using a Cellomics ArrayScan VTI HCS reader with 10×/0.3NA objective (Thermo Fisher Scientific, USA). Six images per well were acquired. Images for the EGFP signal (Ex395, Em509) and the Hoechst nuclear dye (Ex350, Em425) were acquired simultaneously with image analysis using the “Nuclear Translocation” assay algorithm of the Cellomics ArrayScan software. Nuclei were detected based on the Hoechst staining, the nuclear mask was transferred to the EGFP channel, and a 4 pixel wide cytoplasm ring region was defined around the nucleus. The intensity of the EGFP signal was measured both in the nuclear and in the cytoplasm ring region of each individual cell (in general 800-1000 individual cells were analyzed per well), and the difference of the average nuclear versus average cytoplasmic intensity of the EGFP signal was calculated (“CircRingAvgIntenDiffCh2”=“CircAvgIntenCh2”−“RingAvgIntenCh2”). Additionally the number of cells were acquired (feature termed “ValidCellCount”) and used to calculate cell toxicity (CC50). Percent inhibition was calculated relative to the positive (0.5 μM LY-411,575=100% inhibition) and negative (DMSO=0% inhibition) controls. The IC50 value was calculated from the plot of percentage of inhibition vs inhibitor concentration using nonlinear regression analysis software, e.g., Origin (OriginLab Corp.).

human SPPL2a [2] = biological target: T1, human SPPL2a; assay: Sppl2a RGA (reporter gene assay) in HEK293 cells; format: cell-based; set-up: expressed in transfected cells; host or cells: HEK293 (transient); details: NT-TNF-VP16-Gal4 substrate, Gal4-luciferase reporter, 24 h
Source text: Sppl2a RGA (Reporter Gene Assay):
Sppl2a is an intramembrane aspartyl protease with similarities to presenilin, the active subunit of the γ-secretase complex. The assay is based on the coupling of the proteolytic degradation of a membrane bound synthetic substrate (VP16-Gal4 fusion protein with the N-terminal domain of TNF alpha), which migrates to the nucleus upon cleavage, with the Gal4 driven expression of luciferase. Inhibition of Sppl2a results in a reduction of nuclear VP16-Gal4 activator and therefore in a reduction of the production of luciferase. The luciferase dependent-luminescence is plotted against the concentrations of compound to generate a dose response curve, which allows the calculation of the IC50 value.
DNA vectors encoding human Sppl2a, NT-TNF-VP16-Gal4 and a Gal4-luciferase reporter were transiently transfected in HEK293 cells. In a typical experiment 5 μg plasmid for SPPL2a, 10 μg plasmid encoding the reporter Gal4-luciferase and 20 μg plasmid encoding the substrate NT-TF-VP16-Gal4 were mixed together. The DNA mixture was combined with 107 μl FuGENE® (Promega), 735 μl Opti-MEM® (Life Technologies) and incubated for 5 minutes at RT. To this mixture 20 mL of concentrated HEK293 cells were added and thoroughly mixed. The cell suspension was distributed to a white solid 384 well plate. Within 5 hours, 50 nl of compound in DMSO was stamped into the wells via pintool. The plate was incubated for 24 h at 37° C., 5% CO2 in a humidified incubator, before the addition of 25 μl Bright Glo. After incubation at RT for 5 min, the plate was transferred to a luminometer and the luminescence was measured. The IC50 was determined by plotting compound concentration vs. normalized luminescence values.

| IC50 (human SPPL2a [1]) [nM] | IC50 (human SPPL2a [2]) [nM] | Compound |
| --- | --- | --- |
| 450 | 180 | Cc1cnoc1C(=O)NC[C@H](C(=O)N[C@@H]1C(=O)N2CCCN2C(=O)c2ccccc21)C(F)(F)F [Example 2, N—((R)-2-(((S)-5,11-dioxo-2,3,10,11-tetrahydro-1H,5H-benzo[d]pyrazolo[1,2-a][1,2]diazepin-10-yl)carbamoyl)-3,3,3-trifluoropropyl)-4-methylisoxazole-5-carboxamide] |
| 11 | 8 | CC[C@H](CNC(=O)c1sc(-c2ccc(C(F)(F)F)nc2)nc1Cl)C(=O)N[C@@H]1C(=O)N2CCCN2Cc2ccccc21 [Example 15, 4-Chloro-N-((R)-2-(((S)-11-oxo-2,3,10,11-tetrahydro-1H,5H-benzo[d]pyrazolo [1,2-a][1,2]diazepin-10-yl)carbamoyl)butyl)-2-(6-(trifluoromethyl)pyridin-3-yl)thiazole-5-carboxamide] |
| 12 | 3 | CC[C@H](CNC(=O)c1sc(-c2ccc(C(F)(F)F)nc2)nc1C)C(=O)N[C@@H]1C(=O)N2CCCN2Cc2ccccc21 [Example 18, 4-Methyl-N-((R)-2-(((S)-11-oxo-2,3,10,11-tetrahydro-1H,5H-benzo[d]pyrazolo [1,2-a][1,2]diazepin-10-yl)carbamoyl)butyl)-2-(6-(trifluoromethyl)pyridin-3-yl)thiazole-5-carboxamide] |
| 12 | 220 | CC[C@H](CNC(=O)c1sc(-c2cc(C)no2)nc1C)C(=O)N[C@@H]1C(=O)N2CCCN2Cc2ccccc21 [Example 20, 4-Methyl-2-(3-methylisoxazol-5-yl)-N-((R)-2-(((S)-11-oxo-2,3,10,11-tetrahydro-1H,5H-benzo[d]pyrazolo [1,2-a][1,2]diazepin-10-yl)carbamoyl)butyl) thiazole-5-carboxamide] |
| 28 | 88 | CC[C@H](CNC(=O)c1sc(C2=CCCC2)nc1Cl)C(=O)N[C@@H]1C(=O)N2CCCN2C(=O)c2ccccc21 [Example 28, 4-Chloro-2-(cyclopent-1-en-1-yl)-N-((R)-2-(((S)-5,11-dioxo-2,3,10,11-tetrahydro-1H,5H-benzo[d]pyrazolo [1,2-a][1,2]diazepin-10-yl)carbamoyl)butyl) thiazole-5-carboxamide] |
| 29 | 84 | CC[C@H](CNC(=O)c1scnc1C)C(=O)N[C@@H]1C(=O)N2CCCN2Cc2ccccc21 [Example 29, 4-Methyl-N-((R)-2-(((S)-11-oxo-2,3,10,11-tetrahydro-1H,5H-benzo[d]pyrazolo [1,2-a][1,2]diazepin-10-yl)carbamoyl)butyl) thiazole-5-carboxamide] |
| 29 | 16 | CCCOc1nc(C)c(C(=O)NC[C@@H](CC)C(=O)N[C@@H]2C(=O)N3CCCN3Cc3ccccc32)s1 [Example 30, 4-Methyl-N-((R)-2-(((S)-11-oxo-2,3,10,11-tetrahydro-1H,5H-benzo[d]pyrazolo [1,2-a][1,2]diazepin-10-yl)carbamoyl)butyl)-2-propoxythiazole-5-carboxamide] |
| 33 | 22 | CC[C@H](CNC(=O)c1c(C)noc1C(F)(F)F)C(=O)N[C@@H]1C(=O)N2CC3(CC3)CN2C(=O)c2ccccc21 [Example 31, N-((R)-2-(((S)-5,11-Dioxo-10,11-dihydro-1H,3H,5H-spiro[benzo[d]pyr-azolo[1,2-a][1,2]diazepine-2,1′-cyclopropan]-10-yl)carbamoyl)butyl)-3-methyl-5-(trifluoromethyl) isoxazole-4-carboxamide] |
| 43 | 50 | CC[C@H](CNC(=O)c1sc(-c2ccc(OC)nc2)nc1Cl)C(=O)N[C@@H]1C(=O)N2CCCN2C(=O)c2ccccc21 [Example 34, 4-Chloro-N-((R)-2-(((S)-5,11-dioxo-2,3,10,11-tetrahydro-1H,5H-benzo[d]pyrazolo [1,2-a][1,2]diazepin-10-yl)carbamoyl)butyl)-2-(6-methoxypyridin-3-yl)thiazole-5-carboxamide] |
| 45 | 34 | CC[C@H](CNC(=O)c1sncc1C)C(=O)N[C@@H]1C(=O)N2CCCN2C(=O)c2ccccc21 [Example 35, N-((R)-2-(((S)-5,11-Dioxo-2,3,10,11-tetrahydro-1H,5H-benzo[d]pyrazolo [1,2-a][1,2]diazepin-10-yl)carbamoyl)butyl)-4-methylisothiazole-5-carboxamide] |
| 45 | 34 | CCc1nnsc1C(=O)NC[C@@H](CC)C(=O)N[C@@H]1C(=O)N2CC3(CC3)CN2C(=O)c2ccccc21 [Example 36, N-((R)-2-(((S)-5,11-Dioxo-10,11-dihydro-1H,3H,5H-spiro[benzo[d]pyr-azolo[1,2-a][1,2]diazepine-2,1′-cyclopropan]-10-yl)carbamoyl)butyl)-4-ethyl-1,2,3-thiadiazole-5-carboxamide] |
| 53 | 32 | CC[C@H](CNC(=O)c1sc(-c2ccc(OC(F)F)nc2)nc1Cl)C(=O)N[C@@H]1C(=O)N2CCCN2C(=O)c2ccccc21 [Example 37, 4-Chloro-2-(6-(difluoromethoxy)pyridin-3-yl)-N-((R)-2-(((S)-5,11-dioxo-2,3,10,11-tetrahydro-1H,5H-benzo[d]pyrazolo [1,2-a][1,2]diazepin-10-yl)carbamoyl)butyl) thiazole-5-carboxamide] |
| 54 | 43 | Cc1nc(-c2ccc(C(F)(F)F)nc2)sc1C(=O)NC[C@H](C(=O)N[C@@H]1C(=O)N2CCCN2C(=O)c2ccccc21)C(F)(F)F [Example 38, N-((R)-2-(((S)-5,11-Dioxo-2,3,10,11-tetrahydro-1H,5H-benzo[d]pyrazolo [1,2-a][1,2]diazepin-10-yl)carbamoyl)-3,3,3-trifluoropropyl)-4-methyl-2-(6-(trifluoromethyl)pyridin-3-yl)thiazole-5-carboxamide] |
| 54 | 24 | CC[C@H](CNC(=O)c1scnc1Cl)C(=O)N[C@@H]1C(=O)N2CCCN2Cc2ccccc21 [Example 39, 4-Chloro-N-((R)-2-(((S)-11-oxo-2,3,10,11-tetrahydro-1H,5H-benzo[d]pyrazolo [1,2-a][1,2]diazepin-10-yl)carbamoyl)butyl) thiazole-5-carboxamide] |
